The nature of data set [1]: Solubility of Nimorazole in water. In kind it is physicochemical.
For data set [2] the following is noted: The Merck Index, 14th Edition; cited from earlier work.

The structures appear in SMILES notation. ≈ marks a conversion by molar mass, not a printed value.

One may read the solubility as the dissolved amount per volume that the medium holds.

In data set [1], `O=[N+]([O-])c1cncn1CCN1CCOCC1` [Nimorazole] displayed a solubility of 4910 µg/mL (≈ 21.7 mM). The solubility in water result in data set [2] was “slightly soluble”.

The values above are taken from US8703188B1, “Dispersible tablet” (Azanta A/S, priority 2012, dated 2014).
